30 molecules from US8338565B2, “Macrocyclic compounds for inhibition of tumor necrosis factor alpha” (Ensemble Therapeutics Corporation, priority 2008, dated 2012) can be followed below.

Numbered stars: 1 amine (or outer) side, 2 acyl side, 3 side chain; on linkers, the order of the positions; unused ones are H or OH. Bridge positions count the residues as written; N and C are the ends. Square brackets hold non-standard residues; d marks the D form. Peptide text beside a SMILES is read from it. * marks the point of attachment. Phe(4-NO2) = N[C@@H](Cc1ccc([N+](=O)[O-])cc1)C(=O)O; Bip(2'-Me) = Cc1ccccc1-c1ccc(C[C@H](N)C(=O)O)cc1; Phe(3,4-(OMe)2) = COc1ccc(C[C@H](N)C(=O)O)cc1OC; Phe(3-Ph) = N[C@@H](Cc1cccc(-c2ccccc2)c1)C(=O)O; Phe(4-tBu) = CC(C)(C)c1ccc(C[C@H](N)C(=O)O)cc1; Bip = N[C@@H](Cc1ccc(-c2ccccc2)cc1)C(=O)O; Phe(3-OMe) = COc1cccc(C[C@H](N)C(=O)O)c1; Phe(4-CN) = N#Cc1ccc(C[C@H](N)C(=O)O)cc1; Phe(4-Cl) = N[C@@H](Cc1ccc(Cl)cc1)C(=O)O; Phe(4-NH2) = Nc1ccc(C[C@H](N)C(=O)O)cc1; Phe(4-Me) = Cc1ccc(C[C@H](N)C(=O)O)cc1; 1Nal = N[C@@H](Cc1cccc2ccccc12)C(=O)O; 2Nal = N[C@@H](Cc1ccc2ccccc2c1)C(=O)O; His(τ-Me) = Cn1cnc(C[C@H](N)C(=O)O)c1; Met(O2) = CS(=O)(=O)CC[C@H](N)C(=O)O; d(hPhe) = N[C@H](CCc1ccccc1)C(=O)O; mTyr = N[C@@H](Cc1cccc(O)c1)C(=O)O; Igl = N[C@H](C(=O)O)C1Cc2ccccc2C1; hPhe = N[C@@H](CCc1ccccc1)C(=O)O; 2Thi = N[C@@H](Cc1cccs1)C(=O)O; d2Thi = N[C@H](Cc1cccs1)C(=O)O; dPhg = N[C@@H](C(=O)O)c1ccccc1; Suc = O=C(CCC(=O)[*:2])[*:1]; Nicotinoyl = O=C(c1cccnc1)*; Nphe = O=C(O)CNCc1ccccc1; Bn = c1ccc(C*)cc1; tBu = CC(C)(C)*

The target of this assay is T1, TNFα / TNFα receptor (TNFα R1/Fc) (Homo sapiens, UniProt P01375).
T1 construct: purchased R&D Systems
T1 sequence (P01375 77-233 limits assumed, species assumed): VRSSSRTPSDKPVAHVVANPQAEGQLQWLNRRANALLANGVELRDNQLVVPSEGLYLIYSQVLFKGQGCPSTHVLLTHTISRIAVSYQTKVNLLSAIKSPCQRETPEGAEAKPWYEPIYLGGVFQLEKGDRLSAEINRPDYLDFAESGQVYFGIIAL
Put plainly: Inhibition of binding of TNFα to the TNFα receptor (plate ELISA competition). The note with it: Table 2; read-out: Activity (IC50, inhibition of TNFα binding to TNFα R1/Fc). As to the method:
The compounds listed in Table 2 below were assayed for ability to inhibit binding of TNFα to the TNFα receptor (TNFα R1/Fc). The assays were performed as described in the following procedure: TNFα (R&D Systems) was coated on high binding plate wells (Corning 96-well) at a single uniform concentration of 15 nM, 100 μL/well in PBS. The coating proceeded for 30 minutes at 37° C. then 10 minutes at 4° C. The coated plate was washed with PBST, then 250 μL/well of blocking solution (PBST 0.1% BSA, bovine serum albumin) was added and incubation proceeded for 30-45 minutes at room temperature with agitation. The solution phase competition proceeded separately with the dilutions of test compound in PBST (phosphate buffered saline with Tween 20), 2% DMSO in a polypropylene plate (Corning 96-well storage plate) with a single concentration, 8.33 nM of the high affinity receptor for TNFα (R&D Systems). This solution phase incubation proceeded for 30 minutes at room temperature with agitation and was then added to the washed TNFα coated assay plate, 100 μL/well, and was incubated for a further 30 minutes at room temperature with agitation. The assay plate was washed and 100 μL goat anti-human IgG (Fc) HRP labeled antibody in PBST, 13 pM, (KPL Cat#04-10-2) was added to each well. This incubation proceeded for 25-30 minutes at room temperature with agitation. Following this incubation step, the plate was washed and a 100 μL TMB solution (SUREBLUE™ TMB Peroxidase substrate, KPL) was added per well and allowed to stand approximately 3-5 minutes for development. The TMB reaction was stopped with the addition of 0.5N HCl and then the plate was read for absorbance at 450 nm.
(An ELISA detects its analyte on a solid surface through an enzyme-linked reagent.)
For the molecule `CC(C)(C)Oc1ccc(C[C@@H]2NC(=O)[C@@H](Cc3cccs3)NC(=O)CCC(=O)Nc3ccc(cc3)C[C@@H](C(=O)O)NC(=O)[C@@H](Cc3ccccc3)NC2=O)cc1` [Compound 86] ([d2Thi]Y(tBu)[dF][Phe(4-NH2)]-OH; linker N-4 via Suc), the IC50 was > 100 µM. With `O=C1CCC(=O)N[C@H](Cc2cccs2)C(=O)N[C@@H](Cc2ccc(O)cc2)C(=O)N[C@H](Cc2ccccc2)C(=O)N[C@H](C(=O)O)Cc2ccc(cc2)N1` [Compound 87] ([d2Thi]Y[dF][Phe(4-NH2)]-OH; linker N-4 via Suc), the IC50 is > 100 µM. Regarding `COc1cccc(C[C@@H]2NC(=O)[C@@H](Cc3cccs3)NC(=O)CCC(=O)Nc3ccc(cc3)C[C@@H](C(=O)O)NC(=O)[C@@H](Cc3ccccc3)NC2=O)c1` [Compound 88] ([d2Thi][Phe(3-OMe)][dF][Phe(4-NH2)]-OH; linker N-4 via Suc), the IC50 was > 100 µM. In the case of `CC(C)(C)c1ccc(C[C@@H]2NC(=O)[C@@H](Cc3cccs3)NC(=O)CCC(=O)Nc3ccc(cc3)C[C@@H](C(=O)O)NC(=O)[C@@H](Cc3ccccc3)NC2=O)cc1` [Compound 90] ([d2Thi][Phe(4-tBu)][dF][Phe(4-NH2)]-OH; linker N-4 via Suc), the IC50 was > 100 µM. With `O=C1CCC(=O)N[C@H](Cc2cccs2)C(=O)N[C@@H](CCc2ccccc2)C(=O)N[C@H](Cc2ccccc2)C(=O)N[C@H](C(=O)O)Cc2ccc(cc2)N1` [Compound 91] ([d2Thi][hPhe][dF][Phe(4-NH2)]-OH; linker N-4 via Suc), the IC50 was > 100 µM. Regarding `O=C1CCC(=O)N[C@H](Cc2cccs2)C(=O)N[C@@H](Cc2ccc(OCc3ccccc3)cc2)C(=O)N[C@H](Cc2ccccc2)C(=O)N[C@H](C(=O)O)Cc2ccc(cc2)N1` [Compound 92] ([d2Thi]Y(Bn)[dF][Phe(4-NH2)]-OH; linker N-4 via Suc), the IC50 is 30 to 100 µM.

As to `COc1ccc(C[C@@H]2NC(=O)[C@@H](Cc3cccs3)NC(=O)CCC(=O)Nc3ccc(cc3)C[C@@H](C(=O)O)NC(=O)[C@@H](Cc3ccccc3)NC2=O)cc1OC` [Compound 93] ([d2Thi][Phe(3,4-(OMe)2)][dF][Phe(4-NH2)]-OH; linker N-4 via Suc), the IC50 was > 100 µM. For the molecule `N#Cc1ccc(C[C@@H]2NC(=O)[C@@H](Cc3cccs3)NC(=O)CCC(=O)Nc3ccc(cc3)C[C@@H](C(=O)O)NC(=O)[C@@H](Cc3ccccc3)NC2=O)cc1` [Compound 94] ([d2Thi][Phe(4-CN)][dF][Phe(4-NH2)]-OH; linker N-4 via Suc), the IC50 was > 100 µM. Regarding `Cc1ccccc1-c1ccc(C[C@@H]2NC(=O)[C@@H](Cc3cccs3)NC(=O)CCC(=O)Nc3ccc(cc3)C[C@@H](C(=O)O)NC(=O)[C@@H](Cc3ccccc3)NC2=O)cc1` [Compound 95] ([d2Thi][Bip(2'-Me)][dF][Phe(4-NH2)]-OH; linker N-4 via Suc), the IC50 fell in the range of 30 to 100 µM.

As for `O=C1CCC(=O)N[C@H](Cc2cccs2)C(=O)N[C@@H](CCCCNC(=O)c2cccnc2)C(=O)N[C@H](Cc2ccccc2)C(=O)N[C@H](C(=O)O)Cc2ccc(cc2)N1` [Compound 96] ([d2Thi]K(Nicotinoyl)[dF][Phe(4-NH2)]-OH; linker N-4 via Suc), the IC50 is > 100 µM. Regarding `O=C1CCC(=O)N[C@H](Cc2cccs2)C(=O)N[C@@H](Cc2cccs2)C(=O)N[C@H](Cc2ccccc2)C(=O)N[C@H](C(=O)O)Cc2ccc(cc2)N1` [Compound 97] ([d2Thi][2Thi][dF][Phe(4-NH2)]-OH; linker N-4 via Suc), the IC50 is > 100 µM. As to `CS(=O)(=O)CC[C@@H]1NC(=O)[C@@H](Cc2cccs2)NC(=O)CCC(=O)Nc2ccc(cc2)C[C@@H](C(=O)O)NC(=O)[C@@H](Cc2ccccc2)NC1=O` [Compound 98] ([d2Thi][Met(O2)][dF][Phe(4-NH2)]-OH; linker N-4 via Suc), the IC50 is > 100 µM. The same measure for `O=C1CCC(=O)N[C@H](Cc2cccs2)C(=O)N[C@@H](C2Cc3ccccc3C2)C(=O)N[C@H](Cc2ccccc2)C(=O)N[C@H](C(=O)O)Cc2ccc(cc2)N1` [Compound 99] ([d2Thi][Igl][dF][Phe(4-NH2)]-OH; linker N-4 via Suc): > 100 µM; for `Cn1cnc(C[C@@H]2NC(=O)[C@@H](Cc3cccs3)NC(=O)CCC(=O)Nc3ccc(cc3)C[C@@H](C(=O)O)NC(=O)[C@@H](Cc3ccccc3)NC2=O)c1` [Compound 100] ([d2Thi][His(τ-Me)][dF][Phe(4-NH2)]-OH; linker N-4 via Suc): > 100 µM; for `O=C1CCC(=O)N[C@H](Cc2cccs2)C(=O)N(Cc2ccccc2)CC(=O)N[C@H](Cc2ccccc2)C(=O)N[C@H](C(=O)O)Cc2ccc(cc2)N1` [Compound 101] ([d2Thi][Nphe][dF][Phe(4-NH2)]-OH; linker N-4 via Suc): > 100 µM. Regarding `O=C1CCC(=O)N[C@H](Cc2cccs2)C(=O)N[C@@H](Cc2cccc(O)c2)C(=O)N[C@H](Cc2ccccc2)C(=O)N[C@H](C(=O)O)Cc2ccc(cc2)N1` [Compound 102] ([d2Thi][mTyr][dF][Phe(4-NH2)]-OH; linker N-4 via Suc), the IC50 is > 100 µM.

On to `Cc1ccc(C[C@@H]2NC(=O)[C@@H](Cc3cccs3)NC(=O)CCC(=O)Nc3ccc(cc3)C[C@@H](C(=O)O)NC(=O)[C@@H](Cc3ccccc3)NC2=O)cc1` [Compound 103] ([d2Thi][Phe(4-Me)][dF][Phe(4-NH2)]-OH; linker N-4 via Suc), for which the IC50 was > 100 µM. Take `COc1ccc(C[C@@H]2NC(=O)[C@@H](Cc3cccs3)NC(=O)CCC(=O)Nc3ccc(cc3)C[C@@H](C(=O)O)NC(=O)[C@@H](Cc3ccccc3)NC2=O)cc1` [Compound 104] ([d2Thi]Y(Me)[dF][Phe(4-NH2)]-OH; linker N-4 via Suc): the IC50 is > 100 µM. Consider `O=C1CCC(=O)N[C@H](Cc2cccs2)C(=O)N[C@@H](Cc2ccc(Cl)cc2)C(=O)N[C@H](Cc2ccccc2)C(=O)N[C@H](C(=O)O)Cc2ccc(cc2)N1` [Compound 105] ([d2Thi][Phe(4-Cl)][dF][Phe(4-NH2)]-OH; linker N-4 via Suc), for which the IC50 fell in the range of 30 to 100 µM. As for `O=C1CCC(=O)N[C@H](Cc2cccs2)C(=O)N[C@@H](Cc2ccc([N+](=O)[O-])cc2)C(=O)N[C@H](Cc2ccccc2)C(=O)N[C@H](C(=O)O)Cc2ccc(cc2)N1` [Compound 106] ([d2Thi][Phe(4-NO2)][dF][Phe(4-NH2)]-OH; linker N-4 via Suc), the figure is > 100 µM. `O=C1CCC(=O)N[C@H](Cc2cccs2)C(=O)N[C@H](c2ccc(Br)cc2)CC(=O)N[C@H](Cc2ccccc2)C(=O)N[C@H](C(=O)O)Cc2ccc(cc2)N1` [Compound 107]: the IC50 was > 100 µM.

With `O=C1CCC(=O)N[C@H](CCc2ccccc2)C(=O)N[C@@H](Cc2cccc3ccccc23)C(=O)N[C@H](Cc2ccccc2)C(=O)N[C@H](C(=O)O)Cc2ccc(cc2)N1` [Compound 108] ([d(hPhe)][1Nal][dF][Phe(4-NH2)]-OH; linker N-4 via Suc), the IC50 was 10 to 30 µM.

For `O=C1CCC(=O)N[C@H](CCc2ccccc2)C(=O)N[C@@H](Cc2ccc3ccccc3c2)C(=O)N[C@H](Cc2ccccc2)C(=O)N[C@H](C(=O)O)Cc2ccc(cc2)N1` [Compound 109] ([d(hPhe)][2Nal][dF][Phe(4-NH2)]-OH; linker N-4 via Suc), the IC50 fell in the range of 10 to 30 µM. Consider `COc1cccc(-c2ccc(C[C@@H]3NC(=O)[C@@H](CCc4ccccc4)NC(=O)CCC(=O)Nc4ccc(cc4)C[C@@H](C(=O)O)NC(=O)[C@@H](Cc4ccccc4)NC3=O)cc2)c1` [Compound 110], for which the IC50 lay within 10 to 30 µM. For the molecule `O=C1CCC(=O)N[C@H](CCc2ccccc2)C(=O)N[C@@H](Cc2cccc(-c3ccccc3)c2)C(=O)N[C@H](Cc2ccccc2)C(=O)N[C@H](C(=O)O)Cc2ccc(cc2)N1` [Compound 113] ([d(hPhe)][Phe(3-Ph)][dF][Phe(4-NH2)]-OH; linker N-4 via Suc), the IC50 is 10 to 30 µM. On to `O=C1CCC(=O)N[C@H](CCc2ccccc2)C(=O)N[C@@H](Cc2ccc(-c3ncccn3)cc2)C(=O)N[C@H](Cc2ccccc2)C(=O)N[C@H](C(=O)O)Cc2ccc(cc2)N1` [Compound 114], for which the IC50 is > 100 µM. On to `O=C1CCC(=O)N[C@H](CCc2ccccc2)C(=O)N[C@@H](Cc2ccc(-n3cccn3)cc2)C(=O)N[C@H](Cc2ccccc2)C(=O)N[C@H](C(=O)O)Cc2ccc(cc2)N1` [Compound 115], for which the IC50 was > 100 µM. Turning to `O=C1CCC(=O)NN(Cc2ccccc2)C(=O)N[C@@H](Cc2ccc(-c3ccccc3)cc2)C(=O)N[C@H](Cc2ccccc2)C(=O)N[C@H](C(=O)O)Cc2ccc(cc2)N1` [Compound 119], the IC50 was in the range of 30 to 100 µM.

Take `O=C1CCC(=O)N[C@H](c2ccccc2)C(=O)N[C@@H](Cc2ccc(-c3ccccc3)cc2)C(=O)N[C@H](Cc2ccccc2)C(=O)N[C@H](C(=O)O)Cc2ccc(cc2)N1` [Compound 120] ([dPhg][Bip][dF][Phe(4-NH2)]-OH; linker N-4 via Suc): the IC50 is > 100 µM. For the molecule `O=C1CCC(=O)N[C@H](Cc2ccc(O)cc2)C(=O)N[C@@H](Cc2ccc(-c3ccccc3)cc2)C(=O)N[C@H](Cc2ccccc2)C(=O)N[C@H](C(=O)O)Cc2ccc(cc2)N1` [Compound 121] ([dY][Bip][dF][Phe(4-NH2)]-OH; linker N-4 via Suc), the IC50 was > 100 µM.
